Source: ChEMBL document CHEMBL3046483, “Novel 2'-hydroxylfurylchalcones: synthesis and biological activity” (2010)
Active and inactive are the calls of the source. No cut-off for these calls is given here.

How the values were obtained:
Dinebra chinensis [1] = assay: Herbicidal activity against Dinebra chinensis assessed as inhibitory rate of seedling height at 7.5 g/hm'2 relative to control; assay type: functional
Dinebra chinensis [2] = assay: Herbicidal activity against Dinebra chinensis assessed as inhibitory rate of fresh weight gain at 7.5 g/hm'2 relative to control; assay type: functional
Sorghum bicolor [3] = assay: Herbicidal activity against Sorghum bicolor assessed as inhibitory rate of fresh weight gain at 7.5 g/hm'2 relative to control; assay type: functional
Sorghum bicolor [4] = assay: Herbicidal activity against Sorghum bicolor assessed as inhibitory rate of seedling height at 7.5 g/hm'2 relative to control; assay type: functional
Triticum aestivum [5] = assay: Herbicidal activity against Triticum aestivum (wheat) assessed as inhibitory rate of fresh weight gain at 7.5 g/hm'2 relative to control; assay type: functional
Triticum aestivum [6] = assay: Herbicidal activity against Triticum aestivum (wheat) assessed as inhibitory rate of seedling height at 7.5 g/hm'2 relative to control; assay type: functional
Amaranthus tricolor [7] = assay: Herbicidal activity against Amaranthus tricolor assessed as inhibitory rate of fresh weight gain at 7.5 g/hm'2 relative to control; assay type: functional
Amaranthus tricolor [8] = assay: Herbicidal activity against Amaranthus tricolor assessed as inhibitory rate of seedling height at 7.5 g/hm'2 relative to control; assay type: functional
[9] = tested on: Brassica rapa subsp. oleifera; assay: Herbicidal activity against Brassica rapa subsp. oleifera assessed as inhibitory rate of fresh weight gain at 7.5 g/hm'2 relative to control; assay type: functional
[10] = tested on: Brassica rapa subsp. oleifera; assay: Herbicidal activity against Brassica rapa subsp. oleifera assessed as inhibitory rate of seedling height at 7.5 g/hm'2 relative to control; assay type: functional
Cucumis sativus [11] = assay: Herbicidal activity against Cucumis sativus (cucumber) assessed as inhibitory rate of fresh weight gain at 7.5 g/hm'2 relative to control; assay type: functional
Cucumis sativus [12] = assay: Herbicidal activity against Cucumis sativus (cucumber) assessed as inhibitory rate of seedling height at 7.5 g/hm'2 relative to control; assay type: functional
[13] = tested on: Golovinomyces cichoracearum; assay: Antifungal activity against Golovinomyces cichoracearum assessed as cucumber powdery mildew control measured after 1 day; assay type: functional; parameters: concentration or dose not given beside the values
Pyricularia grisea = assay: Antifungal activity against Magnaporthe grisea assessed as rice blast control measured after 1 day; assay type: functional, organism-based
[14] = tested on: Pseudoperonospora cubensis; assay: Antifungal activity against Pseudoperonospora cubensis assessed as cucumber downy mildew control measured after 1 day; assay type: functional, organism-based
Botrytis cinerea = assay: Antifungal activity against Botryotinia fuckeliana assessed as cucumber grey mould control measured after 1 day; assay type: functional, organism-based

Row | Structure (SMILES) | inhibition (INH) (Dinebra chinensis [1]) | inhibition (INH) (Dinebra chinensis [2]) | inhibition (INH) (Sorghum bicolor [3]) | inhibition (INH) (Sorghum bicolor [4]) | inhibition (INH) (Triticum aestivum [5]) | inhibition (INH) (Triticum aestivum [6]) | inhibition (INH) (Amaranthus tricolor [7]) | inhibition (INH) (Amaranthus tricolor [8]) | inhibition (INH) [9] | inhibition (INH) [10] | inhibition (INH) (Cucumis sativus [11]) | inhibition (INH) (Cucumis sativus [12]) | Activity [13] | Activity (Pyricularia grisea) | Activity [14] | Activity (Botrytis cinerea)
1 | O=C(/C=C/c1ccccn1)c1occc1O | 6.7% | 37.4% | 11.3% | 13.6% | 40.9% | 37% | 23.9% | 18.8% | 31.8% | 52.4% | 33.1% | 31% | <10% | inactive | inactive | inactive
2 | O=C(/C=C/c1ccco1)c1occc1O | -3.2% | 56.1% | 12.4% | 4% | 49.6% | 24.4% | 69.6% | 12.5% | 82.1% | 38.1% | 49.7% | 36.1% | <10% | inactive | inactive | inactive
3 | O=C(/C=C/c1ccccc1)c1occc1O | -4.4% | 31.3% | 36% | 55.3% | 46.2% | 37.2% | 32.6% | 18.8% | 60.3% | 38.1% | 1.3% | 33.7% | <10% | inactive | inactive | inactive
4 | COC(=O)[C@@H](C)Oc1ccc(Oc2ncc(C(F)(F)F)cc2Cl)cc1 [HALOXYFOP-P-METHYL] | 100% | 100% | 100% | 100% | 100% | 100% | 21.6% | 2.1% | 17.2% | 44.4% | 31.5% | 42.1% | – | – | – | –
5 | N#Cc1cccc(/C=C/C(=O)c2occc2O)c1 | -12.3% | 12.4% | 24% | 34% | 36.1% | 30.5% | 31.7% | 37.5% | -5.9% | 14.3% | 13.7% | 33.3% | <10% | inactive | inactive | inactive
6 | O=C(/C=C/c1ccc(Cl)cc1)c1occc1O | -3.9% | 52.6% | – | – | 64.6% | 41.8% | 81.2% | 37.5% | 83.5% | 52.4% | 68.2% | 36.5% | <10% | inactive | inactive | inactive
7 | Cc1ccc(/C=C/C(=O)c2occc2O)cc1 | -10.1% | 47.8% | 32.3% | -3.8% | 53% | 28.1% | 72.2% | 12.5% | 45.9% | 33.3% | 39.3% | 32.7% | <10% | inactive | inactive | inactive
8 | O=C(/C=C/c1ccc2ccccc2c1)c1occc1O | -7.4% | 55.9% | – | – | 45.4% | 27.1% | 90.6% | 37.5% | 72.9% | 52.4% | 44% | 41.3% | <10% | inactive | inactive | inactive
9 | O=C(/C=C/c1cccc([N+](=O)[O-])c1)c1occc1O | 1.4% | 63.1% | – | – | 52.5% | 33.9% | 74.8% | 25% | 85.9% | 52.4% | 40.6% | 46.8% | <10% | inactive | inactive | inactive
10 | COc1ccc(/C=C/C(=O)c2occc2O)cc1 | 2.1% | 60.4% | – | – | 53.3% | 35.4% | 54.8% | 37.5% | 72.3% | 38.1% | 35.3% | 33.3% | <10% | inactive | inactive | inactive
11 | O=C(/C=C/c1ccc(F)cc1)c1occc1O | 3.5% | 19% | – | – | 40.6% | 37% | 24.3% | 6.3% | 15.1% | 19% | 17.5% | 56.8% | <10% | inactive | inactive | inactive
12 | O=C(/C=C/c1ccc(Br)cc1)c1occc1O | 4.2% | 66.7% | – | – | 64.2% | 42.5% | 71.7% | 37.5% | 66.7% | 52.4% | 34.5% | 40.5% | <10% | inactive | inactive | inactive
13 | O=C(/C=C/c1ccc(Cl)cc1Cl)c1occc1O | -0.7% | 57.1% | – | – | 63.4% | 39.5% | 69.6% | 18.8% | 87.2% | 42.9% | 37.3% | 35.1% | <10% | inactive | inactive | inactive
